EC50 and AC data for six molecules are collected here from ChEMBL document CHEMBL1135215, “Synthesis and cytotoxicity of 3,4-diaryl-2(5H)-furanones” (2002).

Where only a bound is given, the exact number is not on record here.

For one experiment, the system named is SK-MEL-2. Kind of experiment: Cytotoxic activity against human melanoma SK-MEL-2 was determined. Type of experiment: functional. As to conditions: read-out: ED50 (the source's name).
A further experiment relates to Cancer cell lines. Kind of experiment: Average cytotoxic activity (AC) in three cancer cell lines A549, SK-MEL-2 and MCF-7 was calculated. Further details: unit not given beside the values. Type of experiment: functional, Homo sapiens.
A further experiment has as its system A549. Kind of experiment: Cytotoxic activity against human lung cancer A549 cell line was determined. The class given is functional. The note with it: read-out: ED50 (the source's name).
The next experiment has as its system MCF7. Description: Cytotoxic activity against human breast cancer MCF-7 cell line was determined. The class given is functional. As to conditions: read-out: ED50 (the source's name).

Take `COc1ccccc1C1=C(c2cc(OC)c(OC)c(OC)c2)C(=O)OC1`: the EC50 with SK-MEL-2, in the experiment on A549 and in the experiment with MCF7 was over 5000 nM throughout. Further, the AC in the experiment with Cancer cell lines is over 5000.

For the molecule `COc1cc(C2=C(c3ccc4c(c3)OCO4)COC2=O)cc(OC)c1OC`, the EC50 came to 70.8 nM with SK-MEL-2, 100 nM in the experiment with A549 and 80.4 nM in the experiment with MCF7. The AC with Cancer cell lines is reported as 83.8.

With `COc1ccc(C2=C(c3cc(OC)c(OC)c(OC)c3)C(=O)OC2)cc1O`, the EC50 is 10.2 nM in the experiment on SK-MEL-2, 16.3 nM in the experiment on A549 and 11.4 nM with MCF7. Also, in the experiment with Cancer cell lines, the AC is 12.6.

As for `COc1cc(-n2c(-c3ccc4c(c3)OCO4)coc2=O)cc(OC)c1OC`, the EC50 in the experiment on SK-MEL-2, in the experiment with A549 and with MCF7 was 64.5 nM each time. For the same molecule, in the experiment on Cancer cell lines, the AC was 64.5.

Turning to `COc1cc(C2=C(c3ccc(N)cc3)COC2=O)cc(OC)c1OC`, the results for the EC50 in the experiment with SK-MEL-2, in the experiment with A549 and with MCF7 were 49.3 nM, 54.7 nM and 33 nM, respectively. In the experiment on Cancer cell lines, the AC is on record as 45.7.

For the molecule `COc1cc([C@@H]2c3cc4c(cc3C[C@H]3COC(=O)[C@@H]32)OCO4)cc(OC)c1OC` [DESOXYPODOPHYLLOTOXIN], the EC50 in the experiment on SK-MEL-2 was determined as 8.4 nM; with A549 it was 15.5 nM; in the experiment with MCF7, 11.7 nM. In addition, in the experiment on Cancer cell lines, the AC is reported as 11.9.
